How the values were obtained:
[1] = target: T1, Rat TRPA1 expressing CHO cells (Rattus norvegicus, UniProt Q6RI86); experiment: 45Calcium uptake assay, inhibition of AITC induced calcium uptake (rat); assay type: cell-based; conditions: rat TRPA1 CHO cells, AITC 10 μM; for inhibition at 1 µM: compound 1.0 μM, read-out: Percentage inhibition at 1.0 μM; for inhibition at 10 µM: compound 10.0 μM, read-out: Percentage inhibition at 10.0 μM; for IC50: read-out: Rat IC50 value (Range)
T1 construct: expressed in transfected cells; host or cells: CHO cells (Zeocin selection)
Description: (§1) Screening for TRPA1 Antagonist Using the ^45Calcium Uptake Assay:
(§2) The inhibition of TRPA1 receptor activation was measured as inhibition of allyl isothiocyanate (AITC) induced cellular uptake of radioactive calcium.
(§3) Test compounds were dissolved in 100% DMSO to prepare 10 mM stock and then diluted using plain medium with 0.1% BSA and 1.8 mM CaCl2 to get the desired concentration. The final concentration of DMSO in the reaction was 0.5% (v/v). […] Rat TRPA1 expressing CHO cells were grown in F-12 DMEM medium with 10% FBS, 1% penicillin-streptomycin solution, and 400 μg/ml of Zeocin. […] Cells were treated with the test compounds for 10 minutes followed by the addition of AITC at a final concentration of 30 μM (for human TRPA1) and/or 10 μM (for rat TRPA1) and 5 μCi/ml ^45Ca^+2 for 3 minutes. Cells were washed and lysed using a buffer containing 1% Triton X-100, 0.1% deoxycholate and 0.1% SDS. Radioactivity in the lysate was measured in a Packard TopCount after addition of liquid scintillant.
(§4) Concentration response curves were plotted as a % of maximal response obtained in the absence of test antagonist. IC50 values can be calculated from concentration response curve by nonlinear regression analysis using GraphPad PRISM software.

[2] = target: T2, Human TRPA1 expressing CHO cells (Homo sapiens, UniProt O75762); experiment: 45Calcium uptake assay, inhibition of AITC induced calcium uptake (human); assay type: cell-based; conditions: human TRPA1 CHO cells, AITC 30 μM; for inhibition at 1 µM: compound 1.0 μM, read-out: Percentage inhibition at 1.0 μM; for inhibition at 10 µM: compound 10.0 μM, read-out: Percentage inhibition at 10.0 μM; for IC50: read-out: Human IC50 value (Range)
T2 construct: expressed in transfected cells; host or cells: CHO cells (G-418 selection)
Description: as §1, §2, §3, §4

T1 sequence (Q6RI86 whole entry): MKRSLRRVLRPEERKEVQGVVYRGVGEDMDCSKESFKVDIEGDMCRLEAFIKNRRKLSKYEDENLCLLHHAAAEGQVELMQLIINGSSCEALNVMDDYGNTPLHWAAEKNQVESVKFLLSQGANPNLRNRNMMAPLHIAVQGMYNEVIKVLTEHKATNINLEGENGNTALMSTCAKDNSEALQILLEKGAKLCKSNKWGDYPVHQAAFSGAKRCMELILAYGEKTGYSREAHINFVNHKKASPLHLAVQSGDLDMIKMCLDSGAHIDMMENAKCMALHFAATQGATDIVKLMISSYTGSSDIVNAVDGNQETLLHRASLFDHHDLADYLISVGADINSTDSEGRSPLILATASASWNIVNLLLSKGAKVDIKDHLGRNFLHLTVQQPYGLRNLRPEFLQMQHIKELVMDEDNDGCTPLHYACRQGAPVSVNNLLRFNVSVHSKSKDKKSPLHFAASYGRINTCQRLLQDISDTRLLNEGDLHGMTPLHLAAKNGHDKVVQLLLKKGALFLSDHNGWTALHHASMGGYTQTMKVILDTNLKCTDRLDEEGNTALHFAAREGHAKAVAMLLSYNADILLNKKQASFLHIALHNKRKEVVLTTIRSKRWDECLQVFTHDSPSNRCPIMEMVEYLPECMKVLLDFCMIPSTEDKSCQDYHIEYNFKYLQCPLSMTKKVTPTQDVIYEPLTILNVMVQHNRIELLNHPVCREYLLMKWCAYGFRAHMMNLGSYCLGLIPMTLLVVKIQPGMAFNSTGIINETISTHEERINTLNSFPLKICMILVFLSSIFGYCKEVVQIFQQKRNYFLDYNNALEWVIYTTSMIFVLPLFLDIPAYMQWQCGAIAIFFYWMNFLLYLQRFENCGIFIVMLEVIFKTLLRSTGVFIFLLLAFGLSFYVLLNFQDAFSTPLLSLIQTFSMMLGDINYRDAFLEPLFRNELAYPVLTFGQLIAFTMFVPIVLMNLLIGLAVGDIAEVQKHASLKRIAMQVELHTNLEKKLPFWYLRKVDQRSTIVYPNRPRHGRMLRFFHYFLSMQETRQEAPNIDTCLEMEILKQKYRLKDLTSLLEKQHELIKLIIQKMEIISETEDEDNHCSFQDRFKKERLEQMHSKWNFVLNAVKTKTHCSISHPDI
T2 sequence (O75762 whole entry): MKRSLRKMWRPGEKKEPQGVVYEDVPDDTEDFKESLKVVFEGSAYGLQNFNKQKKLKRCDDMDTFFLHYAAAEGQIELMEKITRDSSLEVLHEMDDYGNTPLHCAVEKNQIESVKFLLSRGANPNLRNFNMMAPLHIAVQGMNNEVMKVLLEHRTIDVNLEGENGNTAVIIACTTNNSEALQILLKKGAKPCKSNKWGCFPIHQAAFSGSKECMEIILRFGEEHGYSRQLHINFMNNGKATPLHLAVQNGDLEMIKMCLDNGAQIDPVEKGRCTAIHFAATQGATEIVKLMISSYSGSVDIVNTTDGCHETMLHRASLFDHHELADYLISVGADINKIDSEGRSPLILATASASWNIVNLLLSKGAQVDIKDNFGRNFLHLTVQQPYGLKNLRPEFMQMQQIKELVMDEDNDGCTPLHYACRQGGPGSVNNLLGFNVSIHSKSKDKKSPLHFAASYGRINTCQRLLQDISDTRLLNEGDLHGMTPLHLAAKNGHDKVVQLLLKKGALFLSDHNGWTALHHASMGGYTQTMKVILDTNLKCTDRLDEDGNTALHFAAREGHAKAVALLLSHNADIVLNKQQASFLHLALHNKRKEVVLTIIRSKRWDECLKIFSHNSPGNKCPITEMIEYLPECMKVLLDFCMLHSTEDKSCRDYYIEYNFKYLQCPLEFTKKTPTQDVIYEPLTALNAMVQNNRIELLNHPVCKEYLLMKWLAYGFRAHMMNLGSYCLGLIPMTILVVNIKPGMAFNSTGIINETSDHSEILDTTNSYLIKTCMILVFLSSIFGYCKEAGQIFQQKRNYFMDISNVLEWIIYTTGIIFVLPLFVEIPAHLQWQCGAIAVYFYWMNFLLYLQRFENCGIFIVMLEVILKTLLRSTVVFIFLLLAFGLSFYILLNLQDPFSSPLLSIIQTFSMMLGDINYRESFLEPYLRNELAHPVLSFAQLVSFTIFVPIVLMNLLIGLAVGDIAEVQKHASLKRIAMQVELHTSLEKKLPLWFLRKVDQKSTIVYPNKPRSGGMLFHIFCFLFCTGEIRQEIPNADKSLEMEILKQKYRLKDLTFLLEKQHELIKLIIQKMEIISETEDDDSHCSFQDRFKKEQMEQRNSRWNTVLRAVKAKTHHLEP

SMILES	inhibition at 1 µM [1] [%]	inhibition at 10 µM [1] [%]	inhibition at 1 µM [2] [%]	inhibition at 10 µM [2] [%]	IC50 [2] [nM]	IC50 [1] [nM]
Cc1sc2c(c1CC(=O)Nc1nc(-c3ccc(Cl)cc3)cs1)c(=O)n(C)c(=O)n2C [Example 19, N-[4-(4-Chlorophenyl)-1,3-thiazol-2-yl]-2-(1,3,6-trimethyl-2,4-dioxo-1,2,3,4-tetrahydrothieno[2,3-d]pyrimidin-5-yl)acetamide]	89.4	99.2	95	98.2	50 to 500	–
Cn1c(=O)c2c(CC(=O)Nc3nc(-c4ccc(F)c(C(F)(F)F)c4F)cs3)csc2n(C)c1=O [Example 13, N-{4-[2,4-Difluoro-3-(trifluoromethyl)phenyl]-1,3-thiazol-2-yl}-2-(1,3-dimethyl-2,4-dioxo-1,2,3,4-tetrahydrothieno[2,3-d]pyrimidin-5-yl)acetamide]	–	–	98.2	98.1	< 50	< 50
CCCc1sc2c(c1CC(=O)Nc1nc(-c3ccc(C(F)(F)F)c(F)c3)cs1)c(=O)n(C)c(=O)n2C [Example 35, N-{4-[3-Fluoro-4-(trifluoromethyl)phenyl]-1,3-thiazol-2-yl}-2-(1,3-dimethyl-2,4-dioxo-6-propyl-1,2,3,4-tetrahydrothieno[2,3-d]pyrimidin-5-yl) acetamide]	90.1	98.3	99.1	100	< 50	50 to 500
CCc1sc2c(c1CC(=O)Nc1nc(-c3cc(F)c(OC(F)F)c(F)c3)cs1)c(=O)n(C)c(=O)n2C [Example 33, N-{4-[4-(Difluoromethoxy)-3,5-difluorophenyl]-1,3-thiazol-2-yl}-2-(6-ethyl-1,3-dimethyl-2,4-dioxo-1,2,3,4-tetrahydrothieno[2,3-d]pyrimidin-5-yl)acetamide]	96.5	97.3	96.9	96.9	< 50	50 to 500
Cn1c(=O)c2c(CC(=O)Nc3nc(-c4ccc(C(F)(F)F)c(F)c4)cs3)scc2n(C)c1=O [Example 50, 2-(1,3-Dimethyl-2,4-dioxo-1,2,3,4-tetrahydrothieno[3,4-d]pyrimidin-5-yl)-N-{4-[3-fluoro-4-(trifluoromethyl)phenyl]-1,3-thiazol-2-yl}acetamide]	57.4	99.1	99.5	100	< 50	–
Cn1c(=O)c2c(CC(=O)Nc3nc(-c4ccc(C(F)(F)F)c(F)c4)cs3)csc2n(C)c1=O [Example 5, 2-(1,3-Dimethyl-2,4-dioxo-1,2,3,4-tetrahydrothieno[2,3-d]pyrimidin-5-yl)-N-{4-[3-fluoro-4-(trifluoromethyl)phenyl]-1,3-thiazol-2-yl}acetamide]	–	–	95.3	99.9	< 50	< 50
Cn1c(=O)c2c(CC(=O)Nc3nc(-c4cc(F)cc(C(F)(F)F)c4)cs3)scc2n(C)c1=O [Example 54, 2-(1,3-Dimethyl-2,4-dioxo-1,2,3,4-tetrahydrothieno[3,4-d]pyrimidin-5-yl)-N-{4-[3-fluoro-5-(trifluoromethyl)phenyl]-1,3-thiazol-2-yl}acetamide]	41.6	91.8	95.1	99.7	< 50	–
Cn1c(=O)c2c(CC(=O)Nc3nc(-c4ccc(OC(F)(F)F)c(F)c4)cs3)scc2n(C)c1=O [Example 52, 2-(1,3-Dimethyl-2,4-dioxo-1,2,3,4-tetrahydrothieno[3,4-d]pyrimidin-5-yl)-N-{4-[3-fluoro-4-(trifluoromethoxy)phenyl]-1,3-thiazol-2-yl}acetamide]	92.3	98.1	98	94.4	< 50	50 to 500
CC(C)c1sc2c(c1CC(=O)Nc1nc(-c3ccc(C(F)(F)F)c(F)c3)cs1)c(=O)n(C)c(=O)n2C [Example 37, N-{4-[3-Fluoro-4-(trifluoromethyl)phenyl]-1,3-thiazol-2-yl}-2-(6-isopropyl-1,3-dimethyl-2,4-dioxo-1,2,3,4-tetrahydrothieno[2,3-d]pyrimidin-5-yl)acetamide]	94.9	97	99	97.7	< 50	< 50
Cn1c(=O)c2c(CC(=O)Nc3nc(-c4cccc(C(F)(F)F)c4F)cs3)csc2n(C)c1=O [Example 9, 2-(1,3-Dimethyl-2,4-dioxo-1,2,3,4-tetrahydrothieno[2,3-d]pyrimidin-5-yl)-N-{4-[2-fluoro-3-(trifluoromethyl)phenyl]-1,3-thiazol-2-yl}acetamide]	100	100	99.2	98.4	< 50	50 to 500
Cn1c(=O)c2c(CC(=O)Nc3nc(-c4ccc(Cl)c(Cl)c4)cs3)scc2n(C)c1=O [Example 53, N-[4-(3,4-Dichlorophenyl)-1,3-thiazol-2-yl]-2-(1,3-dimethyl-2,4-dioxo-1,2,3,4-tetrahydrothieno[3,4-d]pyrimidin-5-yl)acetamide]	42.7	97.9	97.8	99.3	50 to 500	–
Cn1c(=O)c2c(CC(=O)Nc3nc(-c4ccc(Cl)cc4)cs3)scc2n(C)c1=O [Example 45, N-[4-(4-Chlorophenyl)-1,3-thiazol-2-yl]-2-(1,3-dimethyl-2,4-dioxo-1,2,3,4-tetrahydrothieno[3,4-d]pyrimidin-5-yl)acetamide]	66.2	94.8	94	98.9	50 to 500	–
Cn1c(=O)c2c(CC(=O)Nc3nc(-c4cc(F)c(OC(F)F)c(F)c4)cs3)scc2n(C)c1=O [Example 59, N-{4-[4-(Difluoromethoxy)-3,5-difluorophenyl]-1,3-thiazol-2-yl}-2-(1,3-dimethyl-2,4-dioxo-1,2,3,4-tetrahydrothieno[3,4-d]pyrimidin-5-yl)acetamide]	12.7	87.6	89.3	91.4	< 50	–
Cn1c(=O)c2c(CC(=O)Nc3nc(-c4cc(F)c(C(F)(F)F)c(F)c4)cs3)csc2n(C)c1=O [Example 16, N-{4-[3,5-Difluoro-4-(trifluoromethyl)phenyl]-thiazol-2-yl}-2-(1,3-dimethyl-2,4-dioxo-1,2,3,4-tetrahydrothieno[2,3-d]pyrimidin-5-yl)acetamide]	38.7	98.7	99.1	99.1	< 50	–
Cn1c(=O)c2c(CC(=O)Nc3nc(-c4ccc(F)c(C(F)(F)F)c4)cs3)scc2n(C)c1=O [Example 49, 2-(1,3-Dimethyl-2,4-dioxo-1,2,3,4-tetrahydrothieno[3,4-d]pyrimidin-5-yl)-N-{4-[4-fluoro-3-(trifluoromethyl)phenyl]-1,3-thiazol-2-yl}acetamide]	89.9	99	96	99.8	< 50	50 to 500
Cc1sc2c(c1CC(=O)Nc1nc(-c3cccc(F)c3F)cs1)c(=O)n(C)c(=O)n2C [Example 21, N-[4-(2,3-Difluorophenyl)-1,3-thiazol-2-yl]-2-(1,3,6-trimethyl-2,4-dioxo-1,2,3,4-tetrahydrothieno[2,3-d]pyrimidin-5-yl)acetamide]	93.5	99.7	95.4	100	50 to 500	–
CC(C)Cc1ccc(-c2csc(NC(=O)Cc3scc4c3c(=O)n(C)c(=O)n4C)n2)cc1 [Example 44, 2-(1,3-Dimethyl-2,4-dioxo-1,2,3,4-tetrahydrothieno[3,4-d]pyrimidin-5-yl)-N-[4-(4-isobutylphenyl)-1,3-thiazol-2-yl]acetamide]	84.1	95.3	91.4	93.2	50 to 500	–
Cn1c(=O)c2c(CC(=O)Nc3nc(-c4cccc(C(F)(F)F)c4)cs3)scc2n(C)c1=O [Example 46]	93.2	99.7	93.9	98.5	< 50	50 to 500

Source: patent US9474758B2, “Thienopyrimidinedione derivatives as TRPA1 modulators” (Glenmark Pharmaceuticals S.A., priority 2009, dated 2016)
